Assays:
[1] = Treatment of patients with 4MU; assay type: in vivo; conditions: 4×300 mg 4MU
[2] = cited from earlier work
Huh7 liver cells = assay: Uptake of HA, ADAM10/17, Hck and MMPs into EV from HAS-induced Huh7 liver cells (Western blot); assay type: cell-based
Experimental: (B): Hymecromone inhibits the uptake of HA into EV. […] Subsequently EV were purified from culture supernatant of Huh7 cells that were not treated for HAS induction (nil), from Huh7 cells that were treated for HAS induction (48 h; HAS-nd.) and from Huh7 cells that were treated for has induction and additionally incubated with Hymecromone (HAS-ind.+HyCr.). CD81 served as a loading control for pEV. Cell lysates from 293 T cells served as positive control for HA.
Subsequently EV were purified from culture supernatant of Huh7 cells that were not treated for HAS induction (nil), from Huh7 cells that were treated for HAS induction (48 h; HAS-ind.) and from Huh7 cells that were treated for HAS induction and additionally incubated with Hymecromone (HAS-nd.+HyCr.). Red arrows indicate the enzymatic active form of ADAM10 and ADAM17. CD81 served as a loading control for pEV. Cell lysates from 293 T cells served as positive control for HA.
In vitro a concentration of 300 μmol was sufficient to completely block the uploading of HA, Hck, and ADAM10 into vesicles. Whether these concentrations can be reached in circulation after oral uptake is not clear, as Hymecromone is efficiently metabolized in the […]. On the other hand PCpEV are generated by liver cells where Hymecromone is metabolized. […] Furthermore, there are likely inter-individual differences with respect to Hymecromone metabolization.
293Tcells were cultured in DMEM (Lonza), 10% (v/v) fetal bovine serum (FBS) with Penicillin-Strepto-mycin at 37° C., 5% CO2. For transient transfection, plasmids encoding the indicated proteins were transfected with Lipofectamine® LTX with Plus™ Reagent (Invitrogen) according to the manufacturer's instructions, or using the classical calcium phosphate procedure. Cells were used for experiments 24-72 h after transfection. Hymecromone was added at a final concentration of […] after transfection. For immunoblotting 20 μg of cellular protein lysate and 10 μg of EV lysate were loaded per lane. The latter corresponded to the production/secretion of 2-4 mio 293T cells within 48 h transfected and grown in one 10 cm dish.

Choriod Plexus = assay: Accumulation of labeled EV in the choroid plexus after tail vein injection of 4MU-treated EV; assay type: in vivo; conditions: 72 h after injection of 4MU-treated EV into tail veins of a mouse, n=4/condition; FIG. 3
Experimental: (A) Accumulation/absence of accumulation of labeled pEV (red) in the Choriod Plexus 72 h after injection of 4MU-treated EV into tail veins of a mouse (n=4/condition). (B) IHC of a hippocampal section and quantification of EVc pos. cells. Statistical significance by one-way ANOVA and Tukey's test, ***p<0.005.

three isotypes of HAS = conditions: cited from earlier work

Cc1cc(=O)oc2cc(O)ccc12 [Hymecromone, 4-methylumbelliferone]
clinical outcome, Long COVID ([1]; 32 old patient): fully recovered | clinical outcome, Alzheimer's disease (AD)-associated depression ([1]; patient): improved significantly | serious side effects in clinical trials ([2]; at least 182 patients treated in clinical trials): no serious side effects | fraction of unchanged Hymecromone reaching systemic circulation ([2]; efficient metabolism by the liver): low | uptake of ADAM10 and 17 and Hck into EV (Huh7 liver cells; Huh7 cells treated for HAS induction (48 h) and incubated with Hymecromone, FIG. 2): inhibits | uptake of HA into EV (Huh7 liver cells; Huh7 cells treated for HAS induction (48 h) and incubated with Hymecromone, Western blot, FIG. 1B): inhibits | concentration sufficient to completely block the uploading of HA, Hck, and ADAM10 into vesicles (Huh7 liver cells; in vitro): 300 µmol | incorporation of LMW-HA, ADAM10/17, Hck, and MMPs into extracellular vesicles (Huh7 liver cells; pharmacological inhibition of HAS activity): efficiently blocked | EV upload and CP targeting (Choriod Plexus): blocks | inhibition of the three isotypes of HAS (three isotypes of HAS): efficiently inhibited

Reference: patent US20250032444A1, “Prevention and treatment of depressive disorders and conditions promoted by protease containing plasma extracellular vesicles (PCpEV)” (Evexys Biotech Oy, priority 2021, published 2025)
